Laboratory results published in patent US20250324972A1, “METHOD OF CONTROLLING NEMATODES” (priority 2022, published 2025).

Experiments:
[1] = system: root-knot nematode; test: Open field trial on tomato: root galling assessed with the root galling index (Bridge and Page chart); format: in vivo
Source text: The rating method is based on assigning an integer number in the interval from 0 (no knots on the roots) to 10 (all roots severely knotted indicative of plant death).
Treatments 2 and 3 (of the invention): fluensulfone in the form of an emulsifiable concentrate (Nimitz® 480 EC) was applied at the day of planting (DAT=0), followed by a post-plant application twenty five days later (DAT=25). The application method consisted of the following steps. First, the soil was wetted by irrigation water. Then, at the day of planting, appropriate amounts of Nimitz® 480 EC were diluted in water and applied to achieve the application rates tabulated in Table 1. […]
Root galling was assessed in the open-field trial, on DAT=25, 50, and 75, using the root galling index. […]

[2] = system: Tomatoes of Aryman variety; test: Open field trial on tomato: phytotoxicity evaluation; format: in vivo
Experimental: An open field trial was conducted. Tomatoes of Aryman variety was used. The soil type was sandy loam.
Fertilizers were applied prior to bed formation. Plots were formed, with a total area of 25 m^2 per plot. Drip lines were laid in the plot beds (plot beds occupy half the field). Treatments were arranged in a randomized complete block design with two replications.
Fluensulfone emulsifiable concentrate (Nimitz® 480 EC) was used for the fluensulfone treatments. Additionally, comparative nematicides fluopyram (as Fluopyram® 500 SC) and carbofuran (as Carbofuran® 3% CG), were tested. Untreated control plots were formed for comparison.
In Table 1, time of application is expressed by DAT, which indicates the number of days relative to the date of planting.
Treatments 2 and 3 (of the invention): fluensulfone in the form of an emulsifiable concentrate (Nimitz® 480 EC) was applied at the day of planting (DAT=0), followed by a post-plant application twenty five days later (DAT=25). The application method consisted of the following steps. First, the soil was wetted by irrigation water. Then, at the day of planting, appropriate amounts of Nimitz® 480 EC were diluted in water and applied to achieve the application rates tabulated in Table 1. It was repeated on DAT=25. […]
Phytotoxicity was evaluated on DAT=7, 21, 32, and 46. […]

| Compound | average root galling indexes (RGI) ([1]; application initiated on the day of planting/transplanting, even seventy days after planting/transplanting) | root galling index ([1]; method of the invention, at least over 50 days and even 75 days after planting) | Phytotoxicity ([2]; entire range of application rates tested, evaluated on DAT=7, 21, 32, and 46) | Phytotoxicity score ([2]; evaluated on DAT=7, 21, 32, and 46, fluopyram 500 SC 0 DAT @ 1250 ml/ha) |
| --- | --- | --- | --- | --- |
| O=S(=O)(CCC(F)=C(F)F)c1ncc(Cl)s1 [fluensulfone, 5-chloro-2-(3,4,4-trifluoro-but-3-ene-1-sulfonyl)-1,3-thiazole] | below 3 | below 2 | No phytotoxicity was observed |  |
| O=C(NCCc1ncc(C(F)(F)F)cc1Cl)c1ccccc1C(F)(F)F [fluopyram] |  |  |  | 65 |
